This is an account of results in patent publication US4232006A, “Antibiotic W-10 complex, antibiotic 20561 and antibiotic 20562 as antifungal agents” (Schering Corporation, priority 1978, dated 1980).

In brackets after ≈: the same amount, converted by molar mass. Numbered stars: 1 amine (or outer) side, 2 acyl side, 3 side chain; on linkers, the order of the positions; unused ones are H or OH. Bridge positions count the residues as written; N and C are the ends. Square brackets hold non-standard residues; d marks the D form. Peptide text beside a SMILES is read from it. * marks the point of attachment. NMeT = CN[CH](C(=O)O)[CH](C)O; X1 = CCCCCCCCCCCC(O)CC(=O)*; X2 = CC=C(N[*:1])C(=O)[*:2]; X3 = OCC1OC(*)C(O)C(O)C1O Where only a bound is given, the exact number is not on record here.

One series relates to Aeromonas sp. W-10. Kind of series: Resistance of Aeromonas sp. W-10 to antibacterial agents (physiological characteristics). Type of series: cell-based. An excerpt: Based upon the physiological characteristics, morphology and the guanine plus cytosine content of isolated DNA, we have classified the organism as a novel member of the genus Aeromonas. We have designated the bacterium Aeromonas sp. W-10, sometimes referred to herein as Aeromonas W-10, and have deposited the microorganism with the United States Department of Agriculture, Northern Utilization Research and Development Division (NRRL), Peoria, Illinois, from whom subcultures are available. The microorganism has been assigned the numerical designation NRRL B-11053. […]. When observed microscopically, Aeromonas sp. W-10 is seen to be a non-spore forming, gram-negative rod approximately 0.5 to 1.0×1.0-1.5 microns. It occurs singly and is motile by means of a single polar flagellum. The organism is facultatively anaerobic, oxidase positive, capable of reducing nitrates to nitrites, insensitive to the vibriostatic compound 2 4-diamino-6,7-diisopropylpteridine (0/129) with a guanine-cytosine content of DNA at 61%. According to Bergy's Manual of Determinative Bacteriology, 8th Edition, the organism is, on the basis of the data set forth, classified as a member of the genus Aeromonas.
The growth and physiological characteristics of Aeromonas sp. All observations were made after seven (7) days of incubation at 28° C. […]

Series [1] concerns Candida albicans. The series is described as follows: In vivo protection (PD50) of mice intravenously infected with Candida albicans. More on the design: species or system male CF1 mice. Particulars: single dose one hour after i.v. infection, determined 48 hours after infection. The protocol: The in vivo activity of Antibiotic 20561, Antibiotic 20562 and the Antibiotic W-10 complex are obtained using male CF1 mice (Carworth Famrs) given a single oral or subcutaneous dose one hour after intraveneous infection with sufficient Candida albicans to kill 80% of the infected mice in 48 hours.
PD50 values were determined 48 hours after infection and are as follows: […]

A short description of series [2]: Toxicity (LD50), oral or subcutaneous administration. The class given is in vivo.
In series [3] the test system is Trichophyton mentagrophytes. Kind of series: In vivo topical activity against Trichophyton mentagrophytes skin infection in guinea pigs. Particulars: 1% suspension in polyethylene glycol 400, topical twice daily for ten days from three days after infection. The protocol: The skin of fifteen guinea pigs is abraided and infected with a standard culture of Trichophyton mentagropytes. The infected animals are then separated into three groups containing five animals each. Suspensions containing 1% of the respective antibiotics in polyethylene glycol 400 are prepared. Two of the three groups are treated topically, twice daily for ten days commencing three days after infection. The third group (controls) remained untreated throughout the test. All of the animals are tested for infection by culture and observed for skin lesions for a total of 21 days.

Series [4] relates to Saccharomyces cerevisiae ATCC 9763. Kind of series: Agar diffusion potency assay against standard solution of Antibiotic 20562. The class given is cell-based. The procedure:
Peak Antibiotic W-10 Complex production is determined by periodic sampling of the fermentation mixture and by subjecting the samples to an agar diffusion assay using Saccharomyces cerevisiae ATCC 9763 as the test organism. The broths are assayed against a standard solution of Antibiotic 20562 having an assigned potency of 1000 mcg/mg. The standard solution is diluted with 10% potassium phosphate buffer (pH 6.0) to make solutions having antibiotic concentrations of 3.2, 4.0, 5.0, 6.25 and 7.8 mcg/ml. The assay is performed substantially as set forth in the Federal Register, Title 21, Chapter 436.105.

Series [5] has as its system Candida albicans. Kind of series: MIC in vitro in Sabourraud dextrose broth against strains of Candida albicans. The class given is cell-based. The procedure:
Antibiotic 20562 was tested in vitro in Sabourraud dextrose broth against strains of Candida albicans, the Minimum Inhibitory Concentration (MIC) being set forth in Table IV below: […]

Series [6] has as its system Candida albicans (Wisconsin strain). Kind of series: Topical in vivo activity against Candida albicans intravaginal infection in hamsters. The protocol:
Using a culture of Candida albicans (Wisconsin strain), in Sabourrauds dextrose broth, infect intravaginally, five groups of six female hamsters. Forty-eight and seventy-two hours after infection, make smears of the infected animals and culture the smears. […] (96 hours after infection), make additional smears, culture and commence treatment. One group of six animals (controls) receives no treatment and, therefore, remains infected throughout the test. The remaining four groups of animals are treated with Antibiotic 20562, as 1%, 5%, 10% and 15% suspensions, respectively, the vehicle for suspension being administered on a cotton swab. At the end of the three day treatment the 1%, 5% and 10% groups are 60% cured, the 15% group is completely (100%) cured.

Where [7] appears, read: products of Example 2 step B, precipitated after silica gel chromatography.
[8] abbreviates: products of Example 3 steps C and D.
Setting [9] is: separated antibiotics, crystalline solids from methanol, vs standard of 1000 mcg/mg.

With `CC(C)c1nc2nc(N)nc(N)c2nc1C(C)C` [0/129, 2 4-diamino-6,7-diisopropylpteridine], in the series with Aeromonas sp. W-10, the “sensitivity of the organism to the vibriostatic compound” value is given as “insensitive”.
Turning to `CC=C(NC(=O)CC(O)CCCCCCCCCCC)C(=O)NC1C(=O)NC(C(C)O)C(=O)NC(Cc2ccc(O)cc2)C(=O)NC(=CC)C(=O)NC(CCC(N)=O)C(=O)NCC(=O)N(C)C(C(C)O)C(=O)NC(Cc2cnc[nH]2)C(=O)OC1C` (centres unmarked) [Antibiotic 20561] (X1-[X2]TTY[X2]QG[NMeT]H; ester 2-C; configuration not given here), the PD50 with Candida albicans [1] (oral administration) is given as 25 mg/kg; in the series on Candida albicans [1] (subcutaneous administration), 4 mg/kg. In addition, the figures for the LD50 in series [2] (oral administration) and in series [2] (subcutaneous administration) were 1000 mg/kg and more than 1000 mg/kg, respectively. For the same compound, the “Days to become negative: Culture” value in series [3] is 4.8 days. Moreover, in series [3], the “Days to become negative: Lesion” value stood at 6.3 days. For the same compound, the “Assay (potency by agar diffusion)” value in series [4] (setting [7]) was 800 µg/mg; in series [4] (setting [8]), 800 µg/mg; in series [4] (setting [9]) it was “about 800 mcg/mg”.
In the case of `CC=C(NC(=O)CC(O)CCCCCCCCCCC)C(=O)NC1C(=O)NC(C(C)O)C(=O)NC(Cc2ccc(O)cc2)C(=O)NC(=CC)C(=O)NC(CCC(N)=O)C(=O)NCC(=O)N(C)C(C(C)OC2OC(CO)C(O)C(O)C2O)C(=O)NC(Cc2cnc[nH]2)C(=O)OC1C` (centres unmarked) [Antibiotic 20562] (X1-[X2]TTY[X2]QG[NMeT](X3)H; ester 2-C; configuration not given here), the MIC against Candida albicans [5] (Candida albicans strain 29), against Candida albicans [5] (Candida albicans strain Bevan), in the series with Candida albicans [5] (Candida albicans strain Burke), with Candida albicans [5] (Candida albicans strain Collins), in the series with Candida albicans [5] (Candida albicans strain Fix) and with Candida albicans [5] (Candida albicans strain Lush) was 0.075 µg/mL (≈ 0.0552 µM) each time. The minimal inhibitory concentration (MIC) in the series with Candida albicans [5] (Candida albicans strain Merkel), against Candida albicans [5] (Candida albicans strain Newcomb), against Candida albicans [5] (Candida albicans strain No. 1), against Candida albicans [5] (Candida albicans strain Raub), against Candida albicans [5] (Candida albicans strain Sperk) and against Candida albicans [5] (Candida albicans strain Wisconsin) was 0.075 µg/mL (≈ 0.0552 µM) throughout. For the same compound, the results for the PD50 in the series on Candida albicans [1] (oral administration) and with Candida albicans [1] (subcutaneous administration) were 25 mg/kg and 4 mg/kg, respectively. The LD50 (usually the dose at which mortality reaches 50%) was determined as 800 mg/kg in series [2] (oral administration) and 600 mg/kg in series [2] (subcutaneous administration). The “cured at end of three day treatment” value came to 60% in series [6] (1% suspension), 60% in series [6] (5% suspension), 60% in series [6] (10% suspension) and 100% in series [6] (15% suspension). In addition, in series [3], the “Days to become negative: Culture” value came out at 5.8 days. Further, in series [3], the “Days to become negative: Lesion” value came out at 9.0 days. For the same compound, the “Assay (potency by agar diffusion)” value in series [4] (setting [7]) was 800 µg/mg; in series [4] (setting [8]) it was 1000 µg/mg; in series [4] (setting [9]) it was “about 1000 mcg/mg”.
